In DBAASP one finds MIC data, which are given here for 14 compounds.

Converted amounts (≈) assume the structure as drawn. Some results are limits rather than exact numbers.

Test systems include Bacillus subtilis; Escherichia coli; Staphylococcus aureus; Candida albicans.
Experiment in all cases: ≥ marks a high value that may be exact or a test limit, other limits are often not marked, values filed in µg/mL are converted to µM
Test [1] concerns Staphylococcus aureus ATCC 6538.
Test [2] deals with Pseudomonas aeruginosa ATCC 9027.
In test [3] the test system is Staphylococcus aureus ATCC 43300.
Test [4] has as its system Bacillus subtilis ATCC 6633.
Test [5] deals with Candida albicans ATCC 90028.
In test [6] the test system is Pseudomonas aeruginosa ATCC 27853.
Test [7] has as its system Escherichia coli DH5alpha.
The subject of test [8] is Staphylococcus aureus ATCC 25923.

In general, MIC refers to the lowest concentration found to suppress growth.

For `CC(C)C[C@H](NC(=O)[C@H](CC(C)C)NC(=O)[C@H](CCCCN)NC(=O)[C@H](C)NC(=O)[C@H](CC(C)C)NC(=O)[C@H](CCCCN)NC(=O)[C@H](CCCCN)NC(=O)[C@H](C)NC(=O)[C@H](CC(C)C)NC(=O)[C@H](CCCCN)NC(=O)[C@H](CCCCN)NC(=O)[C@H](C)NC(=O)[C@@H](N)Cc1ccccc1)C(N)=O` [FAKKLAKKLAKLL], the minimal inhibitory concentration (MIC) in test [1] and in test [2] was 3.4 µM (≈ 5 µg/mL) in each case.
As to `CC(C)C[C@H](NC(=O)[C@H](CCCCN)NC(=O)[C@H](CCCCN)NC(=O)[C@H](C)NC(=O)[C@H](CC(C)C)NC(=O)[C@H](CCCCN)NC(=O)[C@H](C)NC(=O)[C@H](CC(C)C)NC(=O)[C@H](CCCCN)NC(=O)[C@H](CCCCN)NC(=O)[C@H](CC(C)C)NC(=O)[C@H](CCCCN)NC(=O)[C@H](CCCCN)NC(=O)[C@H](C)NC(=O)[C@@H](N)Cc1ccccc1)C(N)=O` [FAKKLKKLAKLAKKL], the MIC in [1] worked out at 5.79 µM (≈ 9.99 µg/mL); in test [2] it was 2.89 µM (≈ 5 µg/mL).
The corresponding values for `CC(C)C[C@H](NC(=O)[C@@H](NC(=O)[C@H](CCCCN)NC(=O)[C@H](CCCCN)NC(=O)[C@H](C)NC(=O)[C@H](CC(C)C)NC(=O)[C@H](CCCCN)NC(=O)[C@H](C)NC(=O)[C@H](CC(C)C)NC(=O)[C@H](CC(C)C)NC(=O)[C@H](CCCCN)NC(=O)[C@H](C)NC(=O)[C@@H](N)Cc1ccccc1)C(C)C)C(N)=O` [FAKLLAKLAKKVL] are 3.47 µM (≈ 5 µg/mL) and 69.3 µM (≈ 99.9 µg/mL).
The corresponding values for `CC(C)C[C@H](NC(=O)[C@H](CCCCN)NC(=O)[C@H](C)NC(=O)[C@H](CC(C)C)NC(=O)[C@H](CC(C)C)NC(=O)[C@H](CCCCN)NC(=O)[C@H](C)NC(=O)[C@@H](N)Cc1ccccc1)C(=O)N[C@@H](C)C(=O)N[C@@H](CCCCN)C(N)=O` [FAKLLAKLAK] are 45.4 µM (≈ 50 µg/mL) and 181 µM (≈ 200 µg/mL).
With `CC[C@H](C)[C@H](NC(=O)CNC(=O)[C@H](CCCCN)NC(=O)CNC(=O)[C@H](Cc1ccccc1)NC(=O)[C@H](C)NC(=O)[C@H](CC(C)C)NC(=O)[C@H](CCCCN)NC(=O)[C@H](C)NC(=O)[C@H](Cc1c[nH]c2ccccc12)NC(=O)[C@H](CC(C)C)NC(=O)[C@H](CCCCN)NC(=O)[C@H](C)NC(=O)[C@@H](N)Cc1ccccc1)C(=O)NCC(=O)N[C@@H](CCCCN)C(=O)N[C@H](C(=O)NCC(=O)N[C@@H](CCCCN)C(=O)N[C@@H](CCCCN)C(=O)N[C@@H](CC(C)C)C(=O)N[C@@H](CC(C)C)C(N)=O)C(C)C` [FAKLWAKLAFGKGIGKVGKKLL], the MIC in test [1] was 6.32 µM (≈ 15 µg/mL); in [2], 4.21 µM (≈ 10 µg/mL).
Turning to `CC[C@H](C)[C@@H]1NC(=O)[C@H](C)NC(=O)[C@@H](NC(=O)[C@@H](NC(=O)[C@@H](NC(=O)[C@H](C)NC(=O)[C@@H]2CCCN2C(=O)CNC(=O)[C@@H](NC(=O)[C@H](CCCCN)NC(=O)[C@@H](NC(=O)[C@@H](NC(=O)[C@H](CC(C)C)NC(=O)[C@H](CCCN=C(N)N)NC(=O)[C@H](CC(C)C)NC(=O)[C@@H](NC(=O)CNC(=O)[C@@H]2CCCN2C(=O)[C@H](CC(C)C)NC(=O)[C@@H](N)Cc2ccccc2)C(C)C)C(C)C)[C@@H](C)O)C(C)C)C(C)C)C(C)C)CSSC[C@@H](C(=O)O)NC(=O)[C@H](CC(N)=O)NC(=O)[C@H](CCCN=C(N)N)NC(=O)[C@H]([C@@H](C)O)NC1=O` [FLPGVLRLVTKVGPAVVCAITRNC], the MIC is 3.1 µM (≈ 7.83 µg/mL) in [1], 3.1 µM (≈ 7.83 µg/mL) in test [3], 6.3 µM (≈ 15.9 µg/mL) in test [4] and not below 50 µM in test [5].
As for `CC[C@H](C)[C@H](NC(=O)CNC(=O)[C@H](CO)NC(=O)[C@H](CC(C)C)NC(=O)[C@H](CC(C)C)NC(=O)CN)C(=O)N[C@@H](CC(C)C)C(=O)NCC(=O)N[C@@H](C)C(=O)NCC(=O)N[C@@H](CCCCN)C(=O)N[C@@H](CCC(N)=O)C(=O)N[C@@H](CCCCN)C(=O)N[C@H](C(=O)N[C@H]1CSSC[C@@H](C(=O)O)NC(=O)[C@H](CC(C)C)NC(=O)CNC(=O)[C@H](CO)NC(=O)[C@H](CC(C)C)NC(=O)CNC1=O)C(C)C` [GLLSGILGAGKQKVCGLSGLC], the MIC in the test with Bacillus subtilis was 19 µM (≈ 37.5 µg/mL); in the test on Escherichia coli it was 4.75 µM (≈ 9.36 µg/mL); against Staphylococcus aureus it was 9.5 µM (≈ 18.7 µg/mL); in the test with Candida albicans it was 2.37 µM (≈ 4.68 µg/mL).
Regarding `CC[C@H](C)[C@H](NC(=O)[C@H](CC(C)C)NC(=O)[C@H](C)NC(=O)[C@@H]1CCCN1C(=O)[C@H](CC(C)C)NC(=O)CN)C(=O)N[C@@H](CO)C(=O)N[C@@H](CC(C)C)C(=O)N[C@H](C(=O)N[C@@H](CCCCN)C(=O)N[C@@H](CCCN=C(N)N)C(=O)N[C@@H](CCCCN)C(=O)N[C@@H](CCCN=C(N)N)C(=O)N[C@@H](CCC(N)=O)C(=O)N[C@@H](CCC(N)=O)C(N)=O)[C@@H](C)CC` [GLPALISLIKRKRQQ], the MIC with Bacillus subtilis was 5.81 µM (≈ 9.99 µg/mL); in the test with Escherichia coli, 93.5 µM (≈ 161 µg/mL); in the test on Staphylococcus aureus, 7.84 µM (≈ 13.5 µg/mL).
Take `CC[C@H](C)[C@H](NC(=O)[C@H](CC(C)C)NC(=O)[C@H](CC(C)C)NC(=O)[C@H](CC(=O)O)NC(=O)[C@H](CCCCN)NC(=O)[C@@H](NC(=O)[C@H](C)NC(=O)CNC(=O)[C@H](CC(C)C)NC(=O)[C@@H](NC(=O)CN)C(C)C)C(C)C)C(=O)NCC(=O)N[C@@H](C)C(=O)NCC(=O)N[C@@H](CCCCN)C(=O)N[C@@H](CO)C(=O)N[C@@H](C)C(=O)N[C@@H](C)C(=O)N[C@@H](CCC(N)=O)C(=O)N[C@@H](CO)C(=O)N[C@H](C(=O)N[C@@H](CC(C)C)C(=O)N[C@@H](CCCCN)C(=O)N[C@H](C(=O)N[C@@H](CC(C)C)C(=O)N[C@@H](CO)C(=O)N[C@H]1CSSC[C@@H](C(=O)O)NC(=O)[C@H](CC(=O)O)NC(=O)[C@H](CC(N)=O)NC(=O)[C@H](CO)NC(=O)[C@H](CC(C)C)NC(=O)[C@H](CCCCN)NC1=O)[C@@H](C)O)C(C)C` [GVLGAVKDLLIGAGKSAAQSVLKTLSCKLSNDC]: the minimum inhibitory concentration (MIC) was 5.04 µM (≈ 16.4 µg/mL) in the test on Bacillus subtilis, 2.52 µM (≈ 8.21 µg/mL) against Escherichia coli, 1.26 µM (≈ 4.11 µg/mL) in the test with Staphylococcus aureus and 0.629 µM (≈ 2.05 µg/mL) against Candida albicans.
For the compound `CC[C@H](C)[C@H](NC(=O)[C@H](CO)NC(=O)[C@H](C)NC(=O)[C@@H](NC(=O)[C@H](CCCCN)NC(=O)[C@@H](N)CCCCN)[C@@H](C)CC)C(=O)NCC(=O)N[C@@H](CCCCN)C(=O)N[C@@H](CCC(=O)O)C(=O)N[C@H](C(=O)N[C@@H](CC(C)C)C(=O)N[C@@H](CCCCN)C(=O)N[C@@H](C)C(=O)N[C@@H](CC(C)C)C(N)=O)C(C)C` [KKIASIGKEVLKAL], the figures for the MIC in the test with Bacillus subtilis and in the test with Escherichia coli were not below 75 µM and 100 µM (≈ 150 µg/mL), respectively.
The compound `CC(C)C[C@H](NC(=O)CNC(=O)[C@@H](NC(=O)[C@@H]1CCCN1C(=O)[C@H](CC(C)C)NC(=O)CNC(=O)[C@H](CC(N)=O)NC(=O)[C@H](CC(N)=O)NC(=O)[C@H](Cc1c[nH]c2ccccc12)NC(=O)[C@@H](NC(=O)[C@H](CCCN=C(N)N)NC(=O)[C@H](CS)NC(=O)[C@H](CCCN=C(N)N)NC(=O)[C@H](Cc1cnc[nH]1)NC(=O)[C@H](CCCCN)NC(=O)[C@H](CCCCN)NC(=O)[C@H](CCCN=C(N)N)NC(=O)[C@@H](N)CCCCN)C(C)C)[C@@H](C)O)C(=O)N[C@@H](Cc1ccc(O)cc1)C(=O)N[C@@H](CCCN=C(N)N)C(=O)N[C@@H](Cc1c[nH]c2ccccc12)C(=O)N[C@@H](CS)C(N)=O` [KRKKHRCRVWNNGLPTGLYRWC] came in with an MIC in test [1] of 8 µM (≈ 22.2 µg/mL).
As for `CC(C)C[C@H](NC(=O)[C@H](C)NC(=O)[C@H](CCCCN)NC(=O)[C@H](CCCCN)NC(=O)[C@H](CC(C)C)NC(=O)[C@H](C)NC(=O)[C@H](CCCCN)NC(=O)[C@H](CCCCN)NC(=O)[C@H](CC(C)C)NC(=O)[C@H](CCCCN)NC(=O)[C@H](CCCCN)NC(=O)[C@H](CC(C)C)NC(=O)[C@H](C)NC(=O)[C@H](CCCCN)NC(=O)[C@H](CCCCN)NC(=O)[C@H](Cc1ccccc1)NC(=O)[C@H](CC(C)C)NC(=O)[C@H](CCCCN)NC(=O)[C@H](Cc1c[nH]c2ccccc12)NC(=O)[C@@H](N)CCCCN)C(N)=O` [KWKLFKKALKKLKKALKKAL], the MIC in test [1] and in test [2] was 4.15 µM (≈ 10 µg/mL) throughout.
Take `CC[C@H](C)[C@@H]1NC(=O)[C@H](Cc2ccc(O)cc2)NC(=O)[C@@H](NC(=O)[C@H](CCCN=C(N)N)NC(=O)[C@H](CO)NC(=O)[C@@H](N)[C@@H](C)O)CSSC[C@@H](C(=O)N[C@@H](CO)C(=O)O)NC(=O)[C@H](C(C)C)NC(=O)[C@H](C(C)C)NC(=O)[C@H](CCCCN)NC(=O)[C@H](CCCN=C(N)N)NC(=O)[C@H](CCCN=C(N)N)NC(=O)[C@H](Cc2ccc(O)cc2)NC(=O)CNC1=O` [TSRCYIGYRRKVVCS]: the MIC against Bacillus subtilis is 9.77 µM (≈ 17.5 µg/mL); with Escherichia coli it was 9.77 µM (≈ 17.5 µg/mL); against Staphylococcus aureus it was 19.5 µM (≈ 35 µg/mL); in the test on Candida albicans, 4.89 µM (≈ 8.74 µg/mL).
For `CC[C@H](C)[C@H](NC(=O)[C@H](Cc1ccccc1)NC(=O)[C@@H](NC(=O)[C@H](C)NC(=O)[C@H](CCCN=C(N)N)NC(=O)[C@H](CCCCN)NC(=O)[C@H](CCCN=C(N)N)NC(=O)[C@H](CCCCN)NC(=O)[C@H](C)NC(=O)[C@H](CC(C)C)NC(=O)[C@@H](NC(=O)[C@@H](N)Cc1ccc(O)cc1)C(C)C)[C@@H](C)CC)C(=O)O` [YVLAKRKRAIFI], the MIC against Bacillus subtilis is not below 200 µM; in [6] it was more than 200 µM; in test [7], not below 200 µM; in [8] it was more than 200 µM.
